“Also recorded” adds a separate entry of the source.
What was measured:
[1] = tested on: microglial cell line derived from MAL/MyD88 double knockout Mice (NR-9904); experiment: Cytokine/chemokine induction in MAL/MyD88 double-knockout cell line; assay type: cell-based; details: MAL/MyD88 double-knockout murine cell line
Protocol: Cytokine induction by 7e and 7f was examined in murine-derived cell lines. […] The absence of activity was not due to extensive plasma protein binding by re-examining under near-serum-free conditions.
Example 5: High-throughput screens in porcine blood: Curated compound collections were obtained from the Institute for Therapeutics Discovery & Development at the University of Minnesota. Compound transfers from source (80 nL of 10 mM stocks) to assay plates were performed using an Echo 550 acoustic liquid handler (Labcyte, Sunnyvale, Calif.). For most libraries, a target final concentration of 10 μM of compound (in a final volume of 80 μL for the assay described below) was achieved. Compound plates were hermetically sealed and stored at −80° C. until used. Fresh, heparin-anticoagulated porcine blood from healthy animals were obtained under USDA supervision from Midwest Research Swine, LLC (Glencoe, Minn.). 80 μL of hematocrit-enriched porcine blood (low-speed centrifugation, followed by resuspension in DMEM supplemented with 10% fetal bovine serum) was added to compound plates and incubated for 15 h. […] NF-κB translocation was assayed spectrophotometrically using an alkaline phosphatase-specific chromogen (present in HEK-detection medium as supplied by InvivoGen) at 620 nm using a SpectraMax M4 multimode microplate reader (Molecular Devices, Sunnyvale, Calif.). […] Example 7: Human NOD1/2-specific reporter gene assays (NF-κB induction), and TLR-2/-3/-4/-5/-7/-8/-9/STING/ISG counter-screens: The induction of NF-κB was quantified using human TLR-2/-3/-4/-5/-7/-8/-9/NOD-1/NOD-2/STING/ISG-specific, rapid-throughput, liquid handler-assisted reporter gene assays as previously described by us (Wu, W. et al. J. Med. Chem. 2010, 53, 3198-3213; Shukla, N. M. et al. J. Med. Chem. 2010, 53, 4450-4465; Agnihotri, G. et al. J. Med. Chem. 2011, 54, 1490-1510 and Ukani, R. et al. Bioorg. Med. Chem. Lett. 2012, 22, 293-295). […]

human whole blood = experiment: Cytokine/chemokine induction in human whole blood; assay type: cell-based
[2] = tested on: THP-1 NF-κB reporter cells; experiment: NF-κB translocation in THP-1 NF-κB reporter cells, alone or with TLR stimuli; assay type: cell-based, human; details: for enhancement of NF-κB translocation response to TLR2 stimuli: concurrent exposure to compound and TLR2 agonist; for enhancement of NF-κB translocation response to TLR2 stimuli / enhancement of NF-κB translocation response to TLR4 stimuli / enhancement of NF-κB translocation response to TLR5 stimuli: data not shown; for enhancement of NF-κB translocation response to TLR4 stimuli: concurrent exposure to compound and TLR4 agonist; for enhancement of NF-κB translocation response to TLR5 stimuli: concurrent exposure to compound and TLR5 agonist; for enhancement of NF-κB translocation response to TLR7 stimuli: concurrent exposure to graded concentrations of compound and TLR7 agonist; for enhancement of NF-κB translocation response to TLR8 stimuli: concurrent exposure to graded concentrations of compound and TLR8 agonist
Source text: Given that Rip2 activity is proximal to several of the components that constitute the multiprotein signaling complexes involved in innate immune signaling, and Rip2 participates in signaling through some, but not all, TLRs, it was of particular interest to examine if the benzimidazole-thiophene-2-carboxamide formula I compounds could synergize with other innate immune stimuli. […] THP-1 NF-κB reporter cells were concurrently exposed to graded concentrations of either 7e or 7f, and a variety of innate immune stimuli, including TLR-2, -3, -4, -5, -7, -8, and -9 agonists. An enhancement in NF-κB translocation was observed.

Row | SMILES | cytokine and chemokine induction [1] | induction of cytokines and chemokines (human whole blood) | enhancement of NF-κB translocation response to TLR2 stimuli [2] | enhancement of NF-κB translocation response to TLR4 stimuli [2] | enhancement of NF-κB translocation response to TLR5 stimuli [2] | enhancement of NF-κB translocation response to TLR7 stimuli [2] | enhancement of NF-κB translocation response to TLR8 stimuli [2]
1 | CCCCCc1nc2ccccc2n1-c1csc(C(N)=O)c1 [Compound 7e, 4-(2-Pentyl-1H-benzo[d]imidazol-1-yl)thiophene-2-carboxamide] | abrogation of responsiveness | None of the small molecules (including 1, as well as the optimized, equipotent analogues 7e and 7f) showed any activity | absent | absent | evident | particularly pronounced; also recorded: enhancement of NF-κB translocation responses | particularly pronounced; also recorded: enhancement of NF-κB translocation responses; also recorded: distinctly biphasic
2 | CCCCCCc1nc2ccccc2n1-c1csc(C(N)=O)c1 [Compound 7f, 4-(2-Hexyl-1H-benzo[d]imidazol-1-yl)thiophene-2-carboxamide] | essentially identical to that of 7e | None of the small molecules (including 1, as well as the optimized, equipotent analogues 7e and 7f) showed any activity | absent | absent | evident | particularly pronounced | particularly pronounced
